In paper PMC10096175, “An In Vitro Antimicrobial, Anticancer and Antioxidant Activity of N–[(2–Arylmethylthio)phenylsulfonyl]cinnamamide Derivatives” (Molecules, 2023):
Converted amounts (≈) assume the structure as drawn.

Key:
[1] = system: biofilm formation by MRSA clinical strains; assay: Inhibition of biofilm formation (crystal violet), MRSA; assay type: cell-based, Staphylococcus aureus; settings: 2 × MIC
in vitro = settings: sheep, defibrinated sheep blood diluted 1:9 v/v with PBS, pH 7
SKOV-3 cells = assay: MTT assay; assay type: cell-based, human; settings: for IC50: Homo sapiens, SK-OV-3, SKOV-3, MTT, 24 h treatment, read-out: IC50; for Selectivity index (SI): IC50 HEK-293 / IC50 SKOV-3
DPPH assay = settings: DPPH radical scavenging; 40 min, room temperature
Method: The DPPH assay was performed spectrophotometrically. The amount of 30 µL of different concentrations of samples, dissolved in methanol/DMSO (9/1 v/v), was mixed with 170 µL of 0.06 mM DPPH methanolic solution and completed with methanol to a final volume of 300 µL. DPPH methanolic solution with methanol/DMSO (9/1 v/v) was used as a control. After 40 min of incubation at room temperature in the dark, the absorbance was analyzed at λ = 510 nm by a 96-well microplate reader (Epoch, BioTek System, Santa Clara, CA, USA). Ascorbic acid was used as a standard.
DPPH inhibition was calculated by the following equation:DPPH Inhibition (%) = [Acontrol − Asample)/Acontrol] × 100%
IC50 values of the samples were calculated using program GraFit v. 7.0 (Erithacus Software). The analysis was performed three times, with tree replications in each (n = 9). Statistical analysis was performed with one-way ANOVA with Tuckey’s post-hoc test.

[2] = system: 24 h biofilm already formed by MRSA strains; assay: Effect on 24 h biofilm already formed, MRSA; assay type: cell-based, Staphylococcus aureus; settings: MRSA12677
[3] = system: Staphylococcus sp. and Enterococcus sp.; assay: MIC, summary statements on reference Gram-positive cocci; assay type: cell-based; settings: Staphylococcus and Enterococcus species, reference Gram-positive cocci (range over strains)
Method: Sterile sheep blood defibrinated (GrasoBiotech). Co-trimoxazole (composition sulfamethoxazole 400 mg/trimethoprim 80 mg; WZF Polfa Poland). Ketoconazole (WZF Polfa Poland). Bacteria: Enterococcus hirae ATCC 10541 and Enterococcus faecalis ATCC 51299, Staphylococcus epidermidis ATCC 14990, Staphylococcus aureus ATCC 6538, clinical strains Staphylococcus aureus MRSA, clinical strains Staphylococcus sp. (MRCNS), clinical strain Staphylococcus epidermidis MRSE, clinical strain Enterococcus sp., Corynebacterium diphtheriae ZMF, Bacillus subtilis ATCC 6633, Escherichia coli ATCC 8739, Candida albicans ATCC 10231. Brain-heart infusion broth (BHI, Becton Dickinson) for Enterococcus hirae ATCC 10541 and Enterococcus faecalis ATCC 51299, BHI supplement with 10% bovine serum for Bacillus subtilis, Corynebacterium diphtheriae ZMF, Staphylococcus epidermidis ATCC 14990, Staphylococcus aureus ATCC 6538, clinical strains Staphylococcus aureus MRSA, clinical strains Staphylococcus sp. (CNS), clinical strain Staphylococcus epidermidis MRSE grew in Mueller-Hinton broth (MH cation-adjusted, Becton Dickinson) in an aerobic atmosphere at 37 °C for 48 h, in an aerobic atmosphere at 37 °C for 72 h. Candida albicans grew in Sabourauda broth (Sb, Becton Dickinson), in an aerobic atmosphere at 37 °C for 72 h. After determination of the bacterial viability, BHI blood agar plates, MH agar plates, and Sb agar plates were used.
The MIC determination for the reference and clinical strains was performed based on the methodology described by Kula et al.. The dry test samples were dissolved in dimethyl sulfoxide (DMSO) and diluted in water, resulting in a finale concentration of about 500 µg/mL. These solutions were diluted and added to the first well of each microtiter line. Dilution in geometric progression was done by transferring the mixture/dilution (100 μL) from the first to the twelfth well. An aliquot (100 μL) was discarded from the twelfth well. The final concentration of the samples used in the antimicrobial activity assay ranged from 125 to 0.006 µg/mL. Co-trimoxazole (for bacteria), with the composition sulfamethoxazole 400 mg/trimethoprim 80 mg was used as a reference compound in the concentration range of 20 000/4000 to 1/0.2 µg/mL. Ketoconazole (for fungi) was used as a reference compound in the concentration range of 125 to 0.006 µg/mL. Tests were incubated in adequate conditions described by Kula et al.. Diluent concentration had no effect on the activity of the tested compounds. All experiments were carried out three times.

E. faecalis ATCC 51299 = assay: MIC determination, reference strain (microdilution); assay type: cell-based; settings: Enterococcus faecalis, ATCC51299; E. faecalis ATCC 51299; Co-trimoxazole as sulfamethoxazole/trimethoprim; read-out: MIC
[4] = system: cancer cells (HeLa, SKOV-3, MCF-7); assay: MTT assay, summary statements on the cancer cells; assay type: cell-based; settings: Homo sapiens, cell line not specified

Cc1cc(S(=O)(=O)NC(=O)/C=C/c2ccc(Cl)cc2)c(SCc2cc3c(cc2Cl)OCO3)cc1Cl [Compound 17c, (E)–N–{4–Chloro–2–[(6–chlorobenzo[d][1,3]dioxol–5–yl)methylthio]–5–methylphenylsulfonyl}–3–(4–chlorophenyl)acrylamide]
Inhibition of biofilm formation compared with the control ([1]; MRSA13318): 98%
Inhibition of biofilm formation compared with the control ([1]; MRSA21804): 61%
hemolysis at 24 h, 31.25 µg/mL (in vitro): 12 to 20%
IC50 (SKOV-3 cells): 12 ± 1.07 µg/mL (≈ 20.9 µM)
Selectivity index (SI) (SKOV-3 cells): 1.2
IC50 DPPH (DPPH assay): 1077.66 ± 0.42 µg/mL (≈ 1890 µM)
Inhibition of biofilm already formed, in relation to the control ([2]; 2 × MIC): about 40%
MIC [3]: 1 to 2 µg/mL (≈ 1.75 to 3.5 µM)
MIC (E. faecalis ATCC 51299): 2 ± 0.58 µg/mL (≈ 3.5 µM)

COc1ccc(/C=C/C(=O)NS(=O)(=O)c2cc(C)c(Cl)cc2SCc2cccc3ccccc23)cc1F [Compound 16e, (E)–N–{4–Chloro–5–methyl–2–[(naphthalen–1–yl)methylthio]phenylsulfonyl}–3–(3–fluoro–4–methoxyphenyl)acrylamide]
hemolysis at 24 h, 31.25 µg/mL (in vitro): 12 to 20%
IC50 (SKOV-3 cells): 12.2 ± 0.23 µg/mL (≈ 21.9 µM)
Selectivity index (SI) (SKOV-3 cells): 0.8
IC50 DPPH (DPPH assay): 539.30 ± 0.13 µg/mL (≈ 970 µM)
Inhibition of biofilm already formed, in relation to the control ([2]; 2 × MIC and 4 × MIC): about 53%
MIC (E. faecalis ATCC 51299): 4 ± 0.15 µg/mL (≈ 7.19 µM)

Cc1cc(S(=O)(=O)NC(=O)/C=C/c2ccc(Cl)cc2)c(SCc2cccc3ccccc23)cc1Cl [Compound 16d, (E)–N–{4–Chloro–5–methyl–2–[(naphthalen–1–yl)methylthio]phenylsulfonyl}–3–(4–chlorophenyl)acrylamide]
IC50 (SKOV-3 cells): 7.87 ± 0.03 µg/mL (≈ 14.5 µM)
Selectivity index (SI) (SKOV-3 cells): 1.4
IC50 DPPH (DPPH assay): 348.21 ± 0.29 µg/mL (≈ 642 µM)
IC50 ([4]; MTT): < 10 µg/mL
IC50 ([4]; µg/mL bound converted): ≤ 20 µM
MIC [3]: 1 to 2 µg/mL (≈ 1.84 to 3.69 µM)
MIC (E. faecalis ATCC 51299): 2 ± 0.87 µg/mL (≈ 3.69 µM)
